Test results from patent publication US10744114B2, “Use of eupatilin as pharmaceutical composition for prevention and treatment of fibrosis using EMT inhibitory activity” (OSTEONEUROGEN INC., priority 2016, dated 2020).

Key:
[1] = tested on: bleomycin-induced pulmonary fibrosis; assay: Fibrosis of lung tissue induced by bleomycin (Masson's trichrome); format: in vivo, C57BL/6J mice; settings: 12 days after bleomycin 40 μg/head
Description: Five-week-old male C57BL/6J mice (weight: 18.2 to 20.5 g) (KOATECH, Korea) were used as experimental animals, and each test group was composed of five experimental animals, as is summarized in Table 1 below.
Pulmonary fibrosis was induced by directly injecting a bleomycin solution into the lungs via the trachea according to the intratracheal instillation (IT) method of Kremer, Laxer and Berkman et al. Specifically, C57BL/6J mice were anesthetized through inhalation with 70% N2O and 30% O2 gas and 1.5% isoflurane, and the skin of the anterior neck thereof was excised and the organs under the muscle thereof were exposed and then carefully excised using ophthalmic surgical scissors. 50 μL of a bleomycin solution in distilled water was directly injected into the lungs all at once via the excised organ using a 1 mL syringe fitted with a 19-gauge injection needle having a blunt tip. […]
Eupatilin was used by being dissolved in a DPBS buffer (containing 1% DMSO), and the amount of eupatilin that was administered was 1 mL/kg, and the dose for each individual was calculated based on the recent body weight thereof 12 days after the administration of bleomycin, eupatilin was forcibly nasally administered once a day (5 times a week) for 1 week using a micropipette. […]

[2] = tested on: ONGHEPA1 cells; assay: Global gene expression analysis (RNA-Seq) and target gene analysis; format: cell-based, mouse; settings: 24 hr
Description: For a mechanism for the therapeutic effect on fibrosis, the global gene expression of DMSO-treated ONGHEPA1 cells (a control group), ONGHEPA1 cells in which fibrosis was induced by TGF-β, and ONGHEPA1 cells treated with TGF-β and eupatilin was measured.
The cells were treated with DMSO, TGF-β or eupatilin for 24 hr, and total RNA was isolated to manufacture a library, after which about 10,000 expressed mRNA species in a total transcriptome of 30 Gb were analyzed using an Illumina High-seq sequencer.

COc1ccc(-c2cc(=O)c3c(O)c(OC)c(O)cc3o2)cc1OC [eupatilin, 2-(3,4-dimethoxyphenyl)-5,7-dihydroxy-6-methoxy-chromone]
inhibition of pulmonary fibrosis ([1]; 20 μg eupatilin nasally once a day for 1 week): inhibited
inhibition of pulmonary fibrosis ([1]; 40 μg eupatilin nasally once a day for 1 week): more effectively inhibited
expression of Fstl1 ([2]; TGF-β + eupatilin): inhibited to a level of almost zero
Log2fc A disintegrin-like and metallopeptidase (reprolysin type) with thrombospondin type 1 motif 2 (Adamts2) ([2]; TGF-β vs TGF-β+eupatilin): 2.08
Log2fc A disintegrin-like and metallopeptidase with thrombospondin type 1 motif 12 (Adamts12) ([2]; TGF-β vs TGF-β+eupatilin): 2.09
Log2fc AXL receptor tyrosine kinase (Axl) ([2]; TGF-β vs TGF-β+eupatilin): −infinite
Log2fc Actin alpha 4 (Actn4) ([2]; TGF-β vs TGF-β+eupatilin): infinite
Log2fc Actin, gamma2 (Actg2) ([2]; TGF-β vs TGF-β+eupatilin): −5.83
Log2fc ArfGAP with SH3 domain, ankyrin repeat and PH domain 1 (Asap1) ([2]; TGF-β vs TGF-β+eupatilin): −infinite
Log2fc Aurora kinase A (Aurka) ([2]; TGF-β vs TGF-β+eupatilin): −15.3
Log2fc BTAF1 RNA polymerase II, B-TFIID transcription factor-associated (Btaf1) ([2]; TGF-β vs TGF-β+eupatilin): −infinite
Log2fc C-terminal-binding protein 2 (Ctbp2) ([2]; TGF-β vs TGF-β+eupatilin): infinite
Log2fc Caldesmon 1 (Cald1) ([2]; TGF-β vs TGF-β+eupatilin): infinite
Log2fc Calreticulin (Calr) ([2]; TGF-β vs TGF-β+eupatilin): −1.74
Log2fc Calumenin (Calu) ([2]; TGF-β vs TGF-β+eupatilin): infinite
Log2fc Caveolin 1, Caveolae protein (Cav1) ([2]; TGF-β vs TGF-β+eupatilin): 1.76
Log2fc Cell cycle associated protein 1 (Caprin1) ([2]; TGF-β vs TGF-β+eupatilin): −infinite
Log2fc Cell migration inducing protein, hyaluronan binding (Cemip) ([2]; TGF-β vs TGF-β+eupatilin): −2.75
Log2fc Coatomer protein complex, subunit gamma 1 (Copg1) ([2]; TGF-β vs TGF-β+eupatilin): infinite
Log2fc Collagen type 1 alpha 1 (Col1a1) ([2]; TGF-β vs TGF-β+eupatilin): −1.64
Log2fc Collagen type VII alpha1 (Col7a1) ([2]; TGF-β vs TGF-β+eupatilin): −15.2
Log2fc Collagen type XV, alpha 1 (Col5a1) ([2]; TGF-β vs TGF-β+eupatilin): 2.26
Log2fc Collagen, type III, alpha 1 (Col3a1) ([2]; TGF-β vs TGF-β+eupatilin): infinite
Log2fc Collagen, type XI, alpha 1 (Col11a1) ([2]; TGF-β vs TGF-β+eupatilin): −3.11
Log2fc Collagen, type XII, alpha 1 (Col12a1) ([2]; TGF-β vs TGF-β+eupatilin): 2.02
Log2fc Colony stimulating factor 1 (macrophage) (Csf1) ([2]; TGF-β vs TGF-β+eupatilin): 2.15
Log2fc Crystallin, zeta (quinone reductase)-like 1 (Cryzl1) ([2]; TGF-β vs TGF-β+eupatilin): infinite
Log2fc Cyclin D2 (Ccnd2) ([2]; TGF-β vs TGF-β+eupatilin): 2.29
Log2fc Dihydropyrimidinase-like 3 (Dpysl3) ([2]; TGF-β vs TGF-β+eupatilin): infinite
Log2fc Doublecortin-like kinase 1 (Dclk1) ([2]; TGF-β vs TGF-β+eupatilin): 1.54
Log2fc Dynein cytoplasmic 1 heavy chain 1 (Dync1h1) ([2]; TGF-β vs TGF-β+eupatilin): −infinite
Log2fc Dysferlin (Dysf) ([2]; TGF-β vs TGF-β+eupatilin): 2.06
Log2fc EH-domain containing 2 (Ehd2) ([2]; TGF-β vs TGF-β+eupatilin): infinite
Log2fc Elastin (Eln) ([2]; TGF-β vs TGF-β+eupatilin): 3.28
Log2fc Endoglin (Eng) ([2]; TGF-β vs TGF-β+eupatilin): −infinite
Log2fc Endoplasmic reticulum-golgi intermediate compartment 1 (ERGIC1) ([2]; TGF-β vs TGF-β+eupatilin): −1.26
Log2fc Ephrin B2 (Efnb2) ([2]; TGF-β vs TGF-β+eupatilin): 1.92
Log2fc Epidermal growth factor-containing fibulin-like extracellular matrix protein 2 (Efemp2) ([2]; TGF-β vs TGF-β+eupatilin): 1.66
Log2fc Exocyst complex component 4 (Exoc4) ([2]; TGF-β vs TGF-β+eupatilin): 2.9
Log2fc Family with sequence similarity 175, member B (Fam175b) ([2]; TGF-β vs TGF-β+eupatilin): −infinite
Log2fc Fibronectin 1 (Fn1) ([2]; TGF-β vs TGF-β+eupatilin): infinite
Log2fc Fibronectin type III domain containing 1 (Fndc1) ([2]; TGF-β vs TGF-β+eupatilin): 1.75
Log2fc Follistatin-like 1 (Fstl1) ([2]; TGF-β vs TGF-β+eupatilin): infinite
Log2fc Fras 1 related extracellular matrix protein 1 (Frem1) ([2]; TGF-β vs TGF-β+eupatilin): 2.36
Log2fc Heat shock protein 90, alpha (cytosolic), class A member 1(Hsp90aa1) ([2]; TGF-β vs TGF-β+eupatilin): infinite
Log2fc Heparan sulfate 6-O-sulfotransferase 2 (Hs6st2) ([2]; TGF-β vs TGF-β+eupatilin): 3.26
Log2fc Importin-4 (Ipo4) ([2]; TGF-β vs TGF-β+eupatilin): −infinite
Log2fc Inhibition beta-A (Inhba) ([2]; TGF-β vs TGF-β+eupatilin): 2.19
Log2fc Inositol hexakisphosphate kinase 1 (Ip6k1) ([2]; TGF-β vs TGF-β+eupatilin): −infinite
Log2fc Integral beta 5 (Itgb5) ([2]; TGF-β vs TGF-β+eupatilin): −infinite
Log2fc Interleukin 18 receptor accessory protein (Il18rap) ([2]; TGF-β vs TGF-β+eupatilin): 1.69
Log2fc Intersectin 1 (SH3 domain protein 1A) (Itsn1) ([2]; TGF-β vs TGF-β+eupatilin): infinite
Log2fc Laminin, alpha 4 (Lama4) ([2]; TGF-β vs TGF-β+eupatilin): −1.29
Log2fc Latent transforming growth factor beta binding protein 1 (Ltbp1) ([2]; TGF-β vs TGF-β+eupatilin): 3.32
Log2fc Latent transforming growth factor beta binding protein 2 (Ltbp2) ([2]; TGF-β vs TGF-β+eupatilin): −infinite
Log2fc Latent transforming growth factor beta binding protein 4 (Ltbp4) ([2]; TGF-β vs TGF-β+eupatilin): −infinite
Log2fc Leprecan 1 (Lepre1) ([2]; TGF-β vs TGF-β+eupatilin): 1.75
Log2fc Lethal giant larvae homolog 1 (Ligi1) ([2]; TGF-β vs TGF-β+eupatilin): infinite
Log2fc Lysyl oxidase-like 2 (Loxl2) ([2]; TGF-β vs TGF-β+eupatilin): 1.93
Log2fc Microtubule-associated protein 4 (Map4) ([2]; TGF-β vs TGF-β+eupatilin): −infinite
Log2fc Multiple coagulation factor deficiency 2 (Mcfd2) ([2]; TGF-β vs TGF-β+eupatilin): −1.28
Log2fc Natriuretic peptide receptor 3 (Npr3) ([2]; TGF-β vs TGF-β+eupatilin): 2.82
Log2fc Nischarin (Nisch) ([2]; TGF-β vs TGF-β+eupatilin): infinite
Log2fc Olfactomedin 2 (Olfm2) ([2]; TGF-β vs TGF-β+eupatilin): 1.9
Log2fc Oxysterol binding protein-like 9 (Osbpl9) ([2]; TGF-β vs TGF-β+eupatilin): −infinite
Log2fc Palladin, cytoskeletal associated protein (Palld) ([2]; TGF-β vs TGF-β+eupatilin): infinite
Log2fc Periostin (Postn) ([2]; TGF-β vs TGF-β+eupatilin): −4.92
Log2fc Perlecan (Heparan sulfate proteoglycan2) (Hspg2) ([2]; TGF-β vs TGF-β+eupatilin): infinite
Log2fc Pleckstrin and sec7 domain containing 3 (Psd3) ([2]; TGF-β vs TGF-β+eupatilin): 1.43
Log2fc Pleiotrophin (Ptn) ([2]; TGF-β vs TGF-β+eupatilin): 2.06
Log2fc Procollagen lysine, 2-oxoglutarate 5-dioxygenase 2 (Plod2) ([2]; TGF-β vs TGF-β+eupatilin): −1.48
Log2fc Procollagen-lysine, 2-oxoglutarate 5-dioxygenase 3 (Plod3) ([2]; TGF-β vs TGF-β+eupatilin): −2.01
Log2fc Procollagen-proline, 2-oxoglutarate 4-dioxygenase (proline 4-hydroxylase), alpha 1 polypeptide (P4ha1) ([2]; TGF-β vs TGF-β+eupatilin): −1.81
Log2fc Prosaposin (Psap) ([2]; TGF-β vs TGF-β+eupatilin): infinite
Log2fc Prostate androgen-regulated mucin-like protein 1 (Parm1) ([2]; TGF-β vs TGF-β+eupatilin): 1.57
Log2fc Protein FAM 53B (Fam53b) ([2]; TGF-β vs TGF-β+eupatilin): infinite
Log2fc Protein disulfide isomerase associated 6 (Pdia6) ([2]; TGF-β vs TGF-β+eupatilin): 1.85
Log2fc Ring finger protein 145 (Rnf145) ([2]; TGF-β vs TGF-β+eupatilin): −infinite
Log2fc Septin2 (Sept2) ([2]; TGF-β vs TGF-β+eupatilin): infinite
Log2fc Serin (or cysteine) peptidase inhibitor, clade F, member 1 (Serpinf1) ([2]; TGF-β vs TGF-β+eupatilin): 1.99
Log2fc Serine (or cysteine) peptidase inhibitor, clade E, member 1 (Serpine 1) ([2]; TGF-β vs TGF-β+eupatilin): −1.78
Log2fc Slit homolog 3 (Slit3) ([2]; TGF-β vs TGF-β+eupatilin): 3.65
Log2fc Spectrin alpha, erythrocytic 1 (Spta1) ([2]; TGF-β vs TGF-β+eupatilin): 4.01
Log2fc Spectrin beta, non-erythrocytic 1 (Sptbn1) ([2]; TGF-β vs TGF-β+eupatilin): infinite
Log2fc Spectrin repeat containing nuclear envelope 2 (Syne2) ([2]; TGF-β vs TGF-β+eupatilin): −infinite
Log2fc Surfeit 1 (SURF1) ([2]; TGF-β vs TGF-β+eupatilin): −infinite
Log2fc Synaptopodin (Synpo) ([2]; TGF-β vs TGF-β+eupatilin): −infinite
Log2fc TEA Domain Transcription factor 1 (TEAD1) ([2]; TGF-β vs TGF-β+eupatilin): −infinite
Log2fc TLC domain-containing protein 2 (Tlcd2) ([2]; TGF-β vs TGF-β+eupatilin): infinite
Log2fc Tankyrase, TRF1-interacting ankyrin-related ADP-ribose polymerase 2 (Tnks2) ([2]; TGF-β vs TGF-β+eupatilin): −infinite
Log2fc Tenascin C (Tnc) ([2]; TGF-β vs TGF-β+eupatilin): 5.1
Log2fc Thrombospondin, type I domain containing 7A (Thsd7a) ([2]; TGF-β vs TGF-β+eupatilin): 5.06
Log2fc Thymoma viral proto-oncogene 1 (Akt1) ([2]; TGF-β vs TGF-β+eupatilin): −infinite
Log2fc Tissue inhibitor of metalloproteinase 3 (Timp3) ([2]; TGF-β vs TGF-β+eupatilin): infinite
Log2fc TraB domain containing 2B (Trabd2b) ([2]; TGF-β vs TGF-β+eupatilin): 2.75
Log2fc Transformation/transcription domain-associated protein (Trrap) ([2]; TGF-β vs TGF-β+eupatilin): −infinite
Log2fc Transforming, acidic coiled-coil containing protein 2 (Tacc2) ([2]; TGF-β vs TGF-β+eupatilin): infinite
Log2fc Tropomyosin 1, alpha (Tpm1) ([2]; TGF-β vs TGF-β+eupatilin): infinite
Log2fc Tubulin-specific chaperone d (Tbcd) ([2]; TGF-β vs TGF-β+eupatilin): 2.11
Log2fc Ubiquitin-like modifier activating enzyme 1 (Uba1) ([2]; TGF-β vs TGF-β+eupatilin): infinite
Log2fc Vinculin (Vcl) ([2]; TGF-β vs TGF-β+eupatilin): infinite
Log2fc WNK lysine deficient protein kinase 1 (Wnk1) ([2]; TGF-β vs TGF-β+eupatilin): −infinite
Log2fc Willians-Beuren syndrome chromosome region 17 homolog (Wbscr17) ([2]; TGF-β vs TGF-β+eupatilin): −2.83
Log2fc c-fos induced growth factor (Figf) ([2]; TGF-β vs TGF-β+eupatilin): 2.49
Log2fc rho/rac guanine nucleotide exchange factor (GEF) 2 (Arhgef2) ([2]; TGF-β vs TGF-β+eupatilin): −infinite
Log2fc v-myc myelocytomatosis viral related oncogene, neuroblastoma derived (Mycn) ([2]; TGF-β vs TGF-β+eupatilin): 2.05
